In patent US9012427B2, “Pharmaceutical combinations comprising a thionucleotide analog” (Alios BioPharma, Inc., priority 2012, dated 2015):
Where two headings read alike, the source gives them in different places.

Tested on: genotype 1b replicon carrying the firefly luciferase reporter
Assay: HCV replicon in vitro combination assay, dual and triple combination (Example 1)
Type: cell-based
Conditions: Hepatitis C virus, 72 h, read-out: Individual IC50 values
Description: All compounds were dissolved in 100% DMSO (dimethyl sulfoxide) to a stock concentration of 10 mM and stored at −20° C. Serial 2-fold or 3-fold dilution series of compounds were prepared in 100% DMSO at 400-fold of the final concentration to be used in cell culture experiments that would result in a final DMSO concentration of 0.25% in growth medium.
Drug combination studies were carried out using the transient replicon system. On day one, in vitro transcribed RNA of a genotype 1b replicon carrying the firefly luciferase reporter was transfected into Huh-7-ET-cured cells using Minis transfection reagent. (Lohmann V et al., “Replication of subgenomic hepatitis C virus RNAs in a hepatoma cell line” Science (1999) 285(5424):110-113, which is hereby incorporated by reference in its entirety) Ten thousand transfected cells were cultured in complete DMEM medium [DMEM medium supplemented with 2 mM L-glutamine, 1× non-essential amino acids, 10% heat inactivated FBS and PenStrep (100 units/mL penicillin and 100 ug/mL streptomycin)] in the central 60 wells of 96-well, flat bottom, tissue culture treated plates and cultured at 37° C./5% CO2 humidified incubator for 24 h. The next day, compounds were serially diluted (2× or 3× dilution series) in 100% DMSO, mixed together in a checkerboard fashion and added to cells, and the plates were returned to the incubator for an additional 72 h. […] At the end of the incubation, cells from one set of the plates were lysed and the luciferase activity was measured using a luciferase assay kit. […]
The effects of dual combinations were evaluated using the Bliss independence model. (Greco et al., “The search for synergy: a critical review from a response surface perspective” Pharmacol. Rev. (1995) 47(2):331-385, which is hereby incorporated by reference in its entirety) The experimental data (RLU) was analyzed by using MacSynergy, a three-dimensional analytical method developed by Prichard and Shipman. […] The volume of the peak or depression is calculated to quantify the overall synergy or antagonism produced.

[1] = single compound, genotype 1b transient replicon in Huh-7-ET-cured cells, n = 3

Row | SMILES | IC50 | IC50 [1]
1 | CC(C)OC(=O)[C@H](C)N[P@](=S)(OC[C@H]1O[C@@H](n2ccc(=O)[nH]c2=O)[C@](C)(O)[C@@H]1O)Oc1ccccc1 [Compound 1004] | 357 nM | –
2 | COc1ccc2c(O[C@@H]3C[C@H]4C(=O)N[C@]5(C(=O)NS(=O)(=O)C6CC6)C[C@H]5/C=C\CCCCN(C)C(=O)[C@@H]4C3)cc(-c3nc(C(C)C)cs3)nc2c1C [Compound 3013, TMC-435] | – | 2.1 nM
3 | COC(=O)N[C@H](C(=O)N1CCC[C@H]1c1ncc(-c2ccc(-c3ccc(-c4cnc([C@@H]5CCCN5C(=O)[C@@H](NC(=O)OC)C(C)C)[nH]4)cc3)cc2)[nH]1)C(C)C [Compound 3043, Daclatasvir] | – | 0.0114 nM
